68 molecules from ChEMBL document CHEMBL5223107 (Bioorg Med Chem Lett, 2022) can be followed below.

This test deals with T1, Androgen receptor (Homo sapiens, UniProt P10275).
T1 sequence (P10275 whole entry): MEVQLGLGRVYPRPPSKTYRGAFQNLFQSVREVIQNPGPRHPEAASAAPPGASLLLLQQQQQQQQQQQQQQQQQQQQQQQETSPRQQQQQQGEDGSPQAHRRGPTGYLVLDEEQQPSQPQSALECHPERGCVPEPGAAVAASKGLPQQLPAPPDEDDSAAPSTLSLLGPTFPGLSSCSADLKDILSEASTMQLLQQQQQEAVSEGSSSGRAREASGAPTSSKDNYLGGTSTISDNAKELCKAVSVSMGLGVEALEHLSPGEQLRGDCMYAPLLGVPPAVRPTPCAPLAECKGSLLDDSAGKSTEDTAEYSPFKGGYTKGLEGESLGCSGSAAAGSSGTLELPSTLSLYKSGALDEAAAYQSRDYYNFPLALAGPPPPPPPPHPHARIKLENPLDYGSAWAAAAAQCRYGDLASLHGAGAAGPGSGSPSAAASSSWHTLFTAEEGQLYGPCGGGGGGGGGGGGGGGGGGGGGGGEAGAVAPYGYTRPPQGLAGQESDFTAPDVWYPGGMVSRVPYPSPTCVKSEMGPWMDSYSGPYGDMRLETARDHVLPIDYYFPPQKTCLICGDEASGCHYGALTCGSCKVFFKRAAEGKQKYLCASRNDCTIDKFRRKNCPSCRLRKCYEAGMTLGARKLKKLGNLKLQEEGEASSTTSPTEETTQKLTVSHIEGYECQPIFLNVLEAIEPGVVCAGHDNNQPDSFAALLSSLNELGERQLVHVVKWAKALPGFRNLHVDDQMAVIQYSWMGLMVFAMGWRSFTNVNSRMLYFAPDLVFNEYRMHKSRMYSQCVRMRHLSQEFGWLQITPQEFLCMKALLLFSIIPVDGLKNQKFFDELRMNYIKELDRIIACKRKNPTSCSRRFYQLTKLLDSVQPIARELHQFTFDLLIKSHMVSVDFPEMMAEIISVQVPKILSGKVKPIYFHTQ
The test can be described thus: Inhibition of androgen receptor in human LNCaP cells assessed as inhibition of AR transcription activity by dual-luciferase reporter assays. In kind it is cell-based. On the technique in general: In a reporter assay the amount or activity of a reporter protein is the signal.
Broadly, the IC50 is the point on the concentration scale where inhibition reaches its midpoint. For `Cc1c(O)c(O)c(C=O)c(COCc2cccc(C(F)(F)F)c2)c1-c1ccccc1`, the IC50 stood at 3.05 µM.
Consider `Cc1ccccc1-c1c(C)c(O)c(O)c(C=O)c1COCc1ccccc1`, for which the IC50 is above 5 µM.
Regarding `Cc1c(O)c(O)c(C=O)c2c1C(C#Cc1ccc(Br)cc1)CC2` (stereo not drawn), the half-inhibitory concentration (IC50) is above 5 µM.
Consider `Cc1c(O)c(O)c(C=O)c(COCc2ccccc2)c1-c1ccc(Br)cc1F`, for which the IC50 amounted to 3.39 µM.
In the case of `Cc1c(O)c(O)c(C=O)c(COCc2ccccc2F)c1-c1cccc(F)c1`, the IC50 is above 5 µM.
With `Cc1c(O)c(O)c(C=O)c(COCc2ccccc2)c1-c1ccc(C(C)(C)C)cc1`, the IC50 worked out at 3.51 µM.
Take `Cc1c(O)c(O)c(C=O)c(COCc2ccccc2)c1-c1cc(F)ccc1F`: the IC50 was above 5 µM.
The value for `Cc1c(O)c(O)c(C=O)c(COCc2ccccc2)c1CO[Si](C)(C)C` was above 5 µM.
In the case of `Cc1c(O)c(O)c(C=O)c(COCc2ccccc2)c1-c1ccc(Cl)cc1`, the IC50 turned out to be 4.9 µM.
For `Cc1cccc(-c2c(C)c(O)c(O)c(C=O)c2COCc2ccccc2)c1`, the IC50 is above 5 µM.
For the molecule `Cc1cc(COCc2ccccc2)c(C=O)c(O)c1O`, the IC50 was above 5 µM.
For the molecule `Cc1c(O)c(O)c(C=O)c(COCc2cccc(Cl)c2Cl)c1-c1ccccc1`, the IC50 stood at 2.81 µM.
Regarding `Cc1c(C)c(COCc2ccccc2)c(C=O)c(O)c1O`, the IC50 was above 5 µM.
For `CCc1c(O)c(O)c(C=O)c(COCc2ccccc2)c1-c1ccccc1`, the IC50 was above 5 µM.
On to `Cc1c(O)c(O)c(C=O)c(COCc2ccccc2C(F)(F)F)c1-c1ccccc1`, for which the IC50 is 2.54 µM.
For the molecule `Cc1cc(C)cc(-c2c(C)c(O)c(O)c(C=O)c2COCc2ccccc2)c1`, the IC50 is above 5 µM.
For the molecule `Cc1c(O)c(O)c(C=O)c(COCc2ccccc2)c1-c1ccccc1OC(F)(F)F`, the IC50 was above 5 µM.
The value for `Cc1c(O)c(O)c(C=O)c(COCc2ccccc2F)c1-c1ccc(F)cc1` was above 5 µM.
On to `Cc1c(O)c(O)c(C=O)c(COCc2cccc(F)c2)c1-c1ccc(C(F)(F)F)cc1`, for which the IC50 was 2.09 µM.
On to `Cc1c(O)c(O)c(C=O)c(COCc2ccccc2)c1-c1ccc([N+](=O)[O-])cc1`, for which the IC50 is 3.74 µM.
For the molecule `Cc1c(O)c(O)c(C=O)c2c1C1(CC2)c2ccccc2-c2ccccc21`, the IC50 was above 5 µM.
Consider `Cc1cccc(COCc2c(C=O)c(O)c(O)c(C)c2-c2ccccc2)c1`, for which the IC50 stood at 4.53 µM.
Consider `Cc1c(O)c(O)c(C=O)c(COCc2ccccc2)c1-c1ccccc1Cl`, for which the IC50 was above 5 µM.
For the molecule `Cc1c(O)c(O)c(C=O)c(COCc2ccccc2)c1-c1cc(C(F)(F)F)cc(C(F)(F)F)c1`, the IC50 was 4.39 µM.
`COc1ccccc1-c1c(C)c(O)c(O)c(C=O)c1COCc1ccccc1`: the IC50 is above 5 µM.
Take `Cc1ccc(-c2c(C)c(O)c(O)c(C=O)c2COCc2ccccc2)cc1`: the IC50 is 3.27 µM.
In the case of `Cc1c(O)c(O)c(C=O)c(COCc2ccccc2)c1-c1cccc2ccccc12` it was above 5 µM; in that of `Cc1c(O)c(O)c(C=O)c(COCc2ccccc2)c1-c1ccccc1Br`, above 5 µM; in that of `Cc1c(O)c(O)c(C=O)c(COCc2ccc(OC(F)(F)F)cc2)c1-c1ccccc1`, 2.72 µM.
With `C=CCc1c(C)c(O)c(O)c(C=O)c1COCc1ccc(OC)cc1`, the IC50 was above 5 µM.
On to `Cc1c(O)c(O)c(C=O)c(COCc2ccccc2)c1-c1ccc(-c2ccccc2)cc1`, for which the IC50 was above 5 µM.
On to `Cc1c(O)c(O)c(C=O)c(COCc2ccccc2)c1-c1ccc(C(F)(F)F)cc1Cl`, for which the IC50 worked out at 3.25 µM.
As for `Cc1c(O)c(O)c(C=O)c(COCc2ccccc2)c1-c1cccc(Br)c1F`, the IC50 is above 5 µM.
The value for `Cc1c(O)c(O)c(C=O)c(COCc2ccccc2)c1-c1ccc(Br)cc1` was 3.47 µM; that for `CC(C)=CCC/C(C)=C/COCc1cc(C)c(O)c(O)c1C=O` was above 5 µM; that for `Cc1c(O)c(O)c(C=O)c(CSCCC(C)C)c1-c1ccccc1` was above 5 µM.
On to `Cc1c(O)c(O)c(C=O)c(COCc2ccccc2)c1-c1ccc(F)cc1F`, for which the IC50 amounted to 2.3 µM.
In the case of `Cc1c(O)c(O)c(C=O)c(COCc2ccccc2)c1-c1cccs1` it was above 5 µM; in that of `COc1ccc(-c2c(C)c(O)c(O)c(C=O)c2COCc2ccccc2)cc1`, above 5 µM.
Take `Cc1c(O)c(O)c(C=O)c(COCc2ccccc2C(F)(F)F)c1-c1cccc(F)c1`: the IC50 is above 5 µM.
As to `Cc1c(O)c(O)c(C=O)c(COCc2cccc(F)c2)c1-c1ccccc1`, the IC50 was found to be 4.05 µM.
In the case of `COc1cccc(COCc2c(C=O)c(O)c(O)c(C)c2-c2ccccc2)c1` it was above 5 µM.
Turning to `Cc1ccc(COCc2c(C=O)c(O)c(O)c(C)c2-c2ccccc2)cc1`, the IC50 was above 5 µM.
On to `Cc1c(O)c(O)c(C=O)c(COCc2cccc(F)c2)c1-c1cccc(F)c1`, for which the IC50 amounted to 2.89 µM.
For `C=CCc1c(C)c(O)c(O)c(C=O)c1COCc1ccccc1`, the concentration for half-maximal inhibition (IC50) is above 5 µM.
As for `Cc1c(O)c(O)c(C=O)c(COCc2ccccc2)c1-c1ccc(OC(F)(F)F)cc1`, the IC50 worked out at 4.49 µM.
As for `C=C(C)Cc1c(C)c(O)c(O)c(C=O)c1COCc1ccccc1`, the IC50 was above 5 µM.
For the molecule `Cc1c(O)c(O)c(C=O)c(COCc2ccccc2)c1-c1ccc(F)c(F)c1`, the IC50 was 2.05 µM.
`COC(=O)c1ccc(-c2c(C)c(O)c(O)c(C=O)c2COCc2ccccc2)cc1`: the IC50 came to 4.23 µM.
In the case of `Cc1c(O)c(O)c(C=O)c(COCc2ccccc2F)c1-c1ccccc1`, the IC50 was above 5 µM.
In the case of `CCc1cc(COCc2ccccc2)c(C=O)c(O)c1O` it was above 5 µM; in that of `Cc1c(O)c(O)c(C=O)c(COCc2ccc(F)cc2)c1-c1ccc(C(F)(F)F)cc1`, 2.14 µM.
As for `Cc1c(O)c(O)c(C=O)c(COCc2ccccc2F)c1-c1ccc(C(F)(F)F)cc1`, the IC50 stood at 2.52 µM.
On to `Cc1cc(CO[C@H]2CC[C@@]3(C)C(=CC[C@@H]4[C@@H]3CC[C@]3(C)C(=O)CC[C@@H]43)C2)c(C=O)c(O)c1O`, for which the half-maximal inhibitory concentration (IC50) is above 5 µM.
Take `Cc1c(O)c(O)c(C=O)c(COCc2cccc(F)c2)c1-c1ccc(F)cc1`: the IC50 was 2.58 µM.
With `Cc1c(O)c(O)c(C=O)c(COCc2ccccc2)c1-c1ccc(C(F)(F)F)cc1`, the IC50 came out at 1.23 µM.
Take `COc1ccc(COCc2cc(C)c(O)c(O)c2C=O)cc1`: the IC50 was above 5 µM.
`Cc1c(O)c(O)c(C=O)c(COCc2ccc(F)cc2)c1-c1cccc(F)c1`: the IC50 was 2.09 µM.
The value for `Cc1c(O)c(O)c(C=O)c(COCc2ccccc2)c1-c1ccc(C(F)(F)F)cc1Br` was 4.08 µM.
The value for `Cc1c(O)c(O)c(C=O)c(COCc2ccccc2)c1-c1ccc(F)cc1Cl` was above 5 µM; that for `Cc1c(O)c(O)c(C=O)c(COCc2ccccc2)c1-c1ccc(Cl)cc1Br` was above 5 µM.
On to `Cc1c(O)c(O)c(C=O)c(COCc2ccc(F)cc2)c1-c1ccccc1`, for which the IC50 is 2.38 µM.
Consider `Cc1c(O)c(O)c(C=O)c(COCc2ccccc2)c1-c1ccccc1C(F)(F)F`, for which the IC50 is above 5 µM.
The value for `Cc1c(O)c(O)c(C=O)c(COCc2ccccc2)c1-c1ccccc1` was above 5 µM; that for `Cc1c(O)c(O)c(C=O)c(COCc2ccccc2)c1-c1ccc(Cl)cc1C(F)(F)F` was above 5 µM.
Turning to `Cc1c(O)c(O)c(C=O)c(COCc2ccc(F)cc2)c1-c1ccc(F)cc1`, the IC50 turned out to be 2.41 µM.
Consider `Cc1c(O)c(O)c(C=O)c(COCc2ccccc2)c1-c1ccc(F)cc1`, for which the IC50 is above 5 µM.
The value for `Cc1c(O)c(O)c(C=O)c(COCc2ccc(C(F)(F)F)cc2)c1-c1ccccc1` was 3.32 µM.
